# Measurements: ChEMBL document CHEMBL4507329, “Data for DCP probe BTZO-1” (2021)
# Activity calls are given as the source filed them. The rule behind the calls is not given here.
# How the values were obtained:
# [1] = target: Cyclin-dependent kinase 8 (Homo sapiens, UniProt P49336); assay: Inhibition of CDK8 at compound concentration of 10.0 uM using the ScanMax (DiscoverX)
# [2] = target: GABA-A receptor; anion channel; assay: GPCRScan assay: inhibition of GABAA/BZP; format: protein-complex assay, Rattus norvegicus; design: radioligand conc. used [nm] 0.6 – 4.0, parental cells brain tissue
# [3] = target: T1, Macrophage migration inhibitory factor (Homo sapiens) (UniProt P14174); assay: Apoptosis inhibition
# T1 sequence (whole entry): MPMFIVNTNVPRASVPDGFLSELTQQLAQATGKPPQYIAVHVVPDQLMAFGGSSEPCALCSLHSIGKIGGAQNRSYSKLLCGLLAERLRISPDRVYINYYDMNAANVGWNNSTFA
# [4] = target: Macrophage migration inhibitory factor (Homo sapiens, UniProt P14174); assay: Scintillation proximity assay (SPA) measurement of selective [3H]-BTZO-1 binding to hMIF-His
# [5] = target: Macrophage migration inhibitory factor (Rattus norvegicus, UniProt P30904); assay: Scintillation proximity assay (SPA) measurement of selective [3H]-BTZO-1 binding to rMIF-His
# Sequence of Macrophage migration inhibitory factor (Rattus norvegicus, UniProt P30904) (P30904 2-115 limits assumed): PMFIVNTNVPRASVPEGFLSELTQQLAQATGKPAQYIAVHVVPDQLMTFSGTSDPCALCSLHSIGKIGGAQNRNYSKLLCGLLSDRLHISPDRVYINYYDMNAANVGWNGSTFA
# [6] = target: Tyrosine-protein kinase ABL1 (Homo sapiens) (UniProt P00519); conditions: Compound concentration 1000.0 nM
# Sequence of Tyrosine-protein kinase ABL1 (Homo sapiens) (P00519 whole entry): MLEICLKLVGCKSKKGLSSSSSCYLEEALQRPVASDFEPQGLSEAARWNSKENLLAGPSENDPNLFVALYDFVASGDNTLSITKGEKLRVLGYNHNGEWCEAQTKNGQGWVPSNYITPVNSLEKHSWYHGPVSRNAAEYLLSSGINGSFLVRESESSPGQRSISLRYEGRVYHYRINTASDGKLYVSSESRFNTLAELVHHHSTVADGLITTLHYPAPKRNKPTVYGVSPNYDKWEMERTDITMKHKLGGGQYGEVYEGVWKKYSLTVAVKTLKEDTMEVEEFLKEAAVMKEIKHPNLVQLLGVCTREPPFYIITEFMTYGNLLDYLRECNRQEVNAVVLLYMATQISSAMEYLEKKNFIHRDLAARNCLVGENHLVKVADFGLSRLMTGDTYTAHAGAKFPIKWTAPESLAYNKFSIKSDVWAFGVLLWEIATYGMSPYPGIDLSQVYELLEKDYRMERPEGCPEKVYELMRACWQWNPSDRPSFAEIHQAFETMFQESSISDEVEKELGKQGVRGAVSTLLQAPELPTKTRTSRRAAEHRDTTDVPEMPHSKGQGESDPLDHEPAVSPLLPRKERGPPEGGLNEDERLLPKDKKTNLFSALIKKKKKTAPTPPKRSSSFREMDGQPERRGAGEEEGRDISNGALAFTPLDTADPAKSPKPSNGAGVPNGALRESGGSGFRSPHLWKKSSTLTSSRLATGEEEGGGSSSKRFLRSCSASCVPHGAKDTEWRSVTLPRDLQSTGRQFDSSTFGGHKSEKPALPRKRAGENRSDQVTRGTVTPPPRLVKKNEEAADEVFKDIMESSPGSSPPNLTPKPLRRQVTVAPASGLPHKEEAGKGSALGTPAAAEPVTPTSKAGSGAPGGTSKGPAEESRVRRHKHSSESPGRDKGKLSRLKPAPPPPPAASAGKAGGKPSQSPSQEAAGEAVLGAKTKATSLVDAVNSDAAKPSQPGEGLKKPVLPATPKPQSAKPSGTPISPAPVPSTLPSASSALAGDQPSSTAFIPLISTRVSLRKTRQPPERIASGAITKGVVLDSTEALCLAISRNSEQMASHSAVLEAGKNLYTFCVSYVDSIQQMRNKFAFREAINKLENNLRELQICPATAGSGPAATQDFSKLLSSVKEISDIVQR
# [7] = test system: Epidermal growth factor receptor (Homo sapiens), P00533 [UNDEFINED MUTATION]; conditions: Compound concentration 1000.0 nM
# Sequence of Epidermal growth factor receptor (Homo sapiens), P00533 [UNDEFINED MUTATION] (P00533 whole entry, looked up, change not shown): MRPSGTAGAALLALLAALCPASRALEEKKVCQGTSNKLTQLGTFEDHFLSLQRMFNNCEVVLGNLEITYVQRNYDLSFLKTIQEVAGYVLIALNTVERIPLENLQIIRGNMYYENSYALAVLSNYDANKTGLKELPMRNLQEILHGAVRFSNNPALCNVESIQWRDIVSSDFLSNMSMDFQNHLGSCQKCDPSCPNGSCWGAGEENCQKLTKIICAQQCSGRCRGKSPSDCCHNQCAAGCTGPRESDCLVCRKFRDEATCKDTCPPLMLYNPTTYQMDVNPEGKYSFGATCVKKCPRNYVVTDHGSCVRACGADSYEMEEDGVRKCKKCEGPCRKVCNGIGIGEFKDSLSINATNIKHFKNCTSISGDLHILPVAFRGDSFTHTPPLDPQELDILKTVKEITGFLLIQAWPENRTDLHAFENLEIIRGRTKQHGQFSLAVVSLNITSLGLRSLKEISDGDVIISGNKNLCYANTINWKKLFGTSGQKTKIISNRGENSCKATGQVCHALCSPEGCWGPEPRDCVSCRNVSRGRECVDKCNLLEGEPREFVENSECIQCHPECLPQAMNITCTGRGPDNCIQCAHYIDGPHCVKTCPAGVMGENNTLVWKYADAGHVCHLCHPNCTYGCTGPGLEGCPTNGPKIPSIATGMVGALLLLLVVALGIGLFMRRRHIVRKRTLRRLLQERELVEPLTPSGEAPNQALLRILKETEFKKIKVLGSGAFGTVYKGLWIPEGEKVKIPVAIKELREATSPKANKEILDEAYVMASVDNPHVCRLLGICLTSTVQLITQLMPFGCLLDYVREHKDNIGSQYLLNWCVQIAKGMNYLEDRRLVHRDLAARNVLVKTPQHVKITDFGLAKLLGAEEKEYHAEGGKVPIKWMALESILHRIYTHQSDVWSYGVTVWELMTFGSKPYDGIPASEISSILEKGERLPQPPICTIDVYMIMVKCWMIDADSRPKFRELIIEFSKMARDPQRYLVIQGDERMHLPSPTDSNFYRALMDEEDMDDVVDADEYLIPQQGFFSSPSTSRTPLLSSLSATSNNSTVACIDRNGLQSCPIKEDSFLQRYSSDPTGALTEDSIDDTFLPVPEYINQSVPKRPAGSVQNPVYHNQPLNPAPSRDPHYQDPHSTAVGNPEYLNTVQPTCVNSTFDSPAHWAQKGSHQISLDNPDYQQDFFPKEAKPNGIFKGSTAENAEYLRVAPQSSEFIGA
# [8] = target: Mitogen-activated protein kinase kinase kinase kinase 1 (Homo sapiens) (UniProt Q92918); conditions: Compound concentration 1000.0 nM
# Sequence of Mitogen-activated protein kinase kinase kinase kinase 1 (Homo sapiens) (Q92918 whole entry, looked up): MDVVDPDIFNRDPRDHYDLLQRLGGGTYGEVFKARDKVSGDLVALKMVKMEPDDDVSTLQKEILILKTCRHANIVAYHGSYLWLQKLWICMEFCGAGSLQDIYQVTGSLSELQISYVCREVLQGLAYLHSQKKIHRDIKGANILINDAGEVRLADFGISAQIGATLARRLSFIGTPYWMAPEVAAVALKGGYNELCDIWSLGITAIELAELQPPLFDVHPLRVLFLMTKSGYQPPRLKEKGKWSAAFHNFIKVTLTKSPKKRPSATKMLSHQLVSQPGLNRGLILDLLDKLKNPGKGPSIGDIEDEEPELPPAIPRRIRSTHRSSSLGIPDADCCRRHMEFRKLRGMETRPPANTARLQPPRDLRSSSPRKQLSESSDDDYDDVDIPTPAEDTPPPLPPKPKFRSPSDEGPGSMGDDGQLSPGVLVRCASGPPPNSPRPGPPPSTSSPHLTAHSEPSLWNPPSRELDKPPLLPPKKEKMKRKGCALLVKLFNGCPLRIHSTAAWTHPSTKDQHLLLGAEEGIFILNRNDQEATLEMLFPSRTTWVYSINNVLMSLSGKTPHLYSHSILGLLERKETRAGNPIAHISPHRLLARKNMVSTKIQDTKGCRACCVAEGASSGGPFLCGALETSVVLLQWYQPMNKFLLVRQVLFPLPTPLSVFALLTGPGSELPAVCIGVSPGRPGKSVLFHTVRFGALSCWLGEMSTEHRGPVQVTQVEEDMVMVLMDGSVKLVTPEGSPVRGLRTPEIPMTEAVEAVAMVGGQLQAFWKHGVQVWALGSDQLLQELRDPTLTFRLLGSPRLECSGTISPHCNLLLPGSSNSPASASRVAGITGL
# [9] = target: Mitogen-activated protein kinase kinase kinase 11 (Homo sapiens) (UniProt Q16584); conditions: Compound concentration 1000.0 nM
# Sequence of Mitogen-activated protein kinase kinase kinase 11 (Homo sapiens) (Q16584 whole entry, looked up): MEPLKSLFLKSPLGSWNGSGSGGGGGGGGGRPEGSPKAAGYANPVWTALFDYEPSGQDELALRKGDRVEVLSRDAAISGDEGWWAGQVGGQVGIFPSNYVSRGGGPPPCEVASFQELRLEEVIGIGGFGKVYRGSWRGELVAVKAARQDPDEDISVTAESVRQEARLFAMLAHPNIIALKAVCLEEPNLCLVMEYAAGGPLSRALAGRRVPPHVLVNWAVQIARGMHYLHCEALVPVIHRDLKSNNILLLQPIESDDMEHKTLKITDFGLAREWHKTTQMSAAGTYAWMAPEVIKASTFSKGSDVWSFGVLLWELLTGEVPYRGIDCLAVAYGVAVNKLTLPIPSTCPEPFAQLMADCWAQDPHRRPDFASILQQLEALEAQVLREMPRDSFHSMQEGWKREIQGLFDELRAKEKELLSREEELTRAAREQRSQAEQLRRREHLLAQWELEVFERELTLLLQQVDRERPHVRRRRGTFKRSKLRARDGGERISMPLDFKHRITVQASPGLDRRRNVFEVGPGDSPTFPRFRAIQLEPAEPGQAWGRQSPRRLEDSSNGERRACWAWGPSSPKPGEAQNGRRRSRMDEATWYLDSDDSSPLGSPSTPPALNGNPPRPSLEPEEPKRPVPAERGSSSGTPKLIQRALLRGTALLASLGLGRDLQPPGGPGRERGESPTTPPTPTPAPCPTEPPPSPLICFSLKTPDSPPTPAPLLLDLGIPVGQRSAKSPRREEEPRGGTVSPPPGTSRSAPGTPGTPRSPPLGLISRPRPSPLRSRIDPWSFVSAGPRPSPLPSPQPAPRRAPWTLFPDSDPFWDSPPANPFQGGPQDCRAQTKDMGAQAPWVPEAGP
# [10] = target: Serine/threonine-protein kinase PLK3 (Homo sapiens) (UniProt Q9H4B4); conditions: Compound concentration 1000.0 nM
# Sequence of Serine/threonine-protein kinase PLK3 (Homo sapiens) (Q9H4B4 whole entry, looked up): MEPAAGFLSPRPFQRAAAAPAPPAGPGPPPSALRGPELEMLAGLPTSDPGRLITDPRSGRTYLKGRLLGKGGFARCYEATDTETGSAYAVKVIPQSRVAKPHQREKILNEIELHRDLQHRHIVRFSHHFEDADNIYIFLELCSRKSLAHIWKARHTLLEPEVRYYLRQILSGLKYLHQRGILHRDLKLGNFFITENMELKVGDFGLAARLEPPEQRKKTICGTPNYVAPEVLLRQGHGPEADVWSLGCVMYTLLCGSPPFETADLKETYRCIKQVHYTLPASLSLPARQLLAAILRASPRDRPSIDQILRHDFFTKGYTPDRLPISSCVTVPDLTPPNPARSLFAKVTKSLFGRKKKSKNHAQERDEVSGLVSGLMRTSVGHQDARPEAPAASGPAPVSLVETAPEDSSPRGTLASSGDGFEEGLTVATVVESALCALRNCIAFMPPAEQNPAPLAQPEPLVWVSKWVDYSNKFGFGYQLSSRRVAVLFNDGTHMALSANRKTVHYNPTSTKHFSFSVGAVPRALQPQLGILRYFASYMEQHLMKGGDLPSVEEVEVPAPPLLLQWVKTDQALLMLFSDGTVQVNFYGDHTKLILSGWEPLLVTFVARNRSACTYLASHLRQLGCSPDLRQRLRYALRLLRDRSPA
# [11] = target: Ribosomal protein S6 kinase alpha-6 (Homo sapiens) (UniProt Q9UK32); conditions: Compound concentration 1000.0 nM
# [12] = target: Serine/threonine-protein kinase SIK1 (Homo sapiens) (UniProt P57059); conditions: Compound concentration 1000.0 nM
# [13] = target: 5-hydroxytryptamine receptor 6 (Homo sapiens) (UniProt P50406); conditions: Compound concentration 10.0 uM
# [14] = target: GABA-A receptor; anion channel (Rattus norvegicus) (UniProt O09028+P15431+P18506+P18508+P19969+P20236+P23574+P23576+P28471+P28473+P30191+P62813+P63079+P63138+Q91ZM7+Q9ES14); conditions: Compound concentration 10.0 uM
# [15] = target: Muscarinic acetylcholine receptor M1 (Homo sapiens) (UniProt P11229); conditions: Compound concentration 10.0 uM
# Rattus norvegicus = species: Rattus norvegicus; conditions: Compound concentration 10.0 uM
# [16] = target: Sigma intracellular receptor 2 (Homo sapiens) (UniProt Q5BJF2); conditions: Compound concentration 10.0 uM
# [17] = target: Sigma non-opioid intracellular receptor 1 (Homo sapiens) (UniProt Q99720); conditions: Compound concentration 10.0 uM
# Sequence of Sigma non-opioid intracellular receptor 1 (Homo sapiens) (Q99720 whole entry): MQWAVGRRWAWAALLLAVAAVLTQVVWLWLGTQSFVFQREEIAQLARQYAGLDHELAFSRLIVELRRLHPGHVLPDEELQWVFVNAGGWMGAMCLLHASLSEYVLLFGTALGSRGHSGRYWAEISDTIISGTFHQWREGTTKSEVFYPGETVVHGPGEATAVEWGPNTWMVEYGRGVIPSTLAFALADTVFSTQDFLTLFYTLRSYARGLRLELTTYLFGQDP
# [18] = target: Death-associated protein kinase 3 (Homo sapiens, UniProt O43293); assay: Inhibition of DAPK3 at compound concentration of 10.0 uM using the ScanMax (DiscoverX)
# [19] = target: G protein-coupled receptor kinase 3 (Homo sapiens, UniProt P35626); assay: Inhibition of GRK3 at compound concentration of 10.0 uM using the ScanMax (DiscoverX)
# [20] = target: 5-hydroxytryptamine receptor 1D (Homo sapiens) (UniProt P28221); conditions: Compound concentration 10.0 uM
# [21] = target: 5-hydroxytryptamine receptor 5A (Homo sapiens) (UniProt P47898); conditions: Compound concentration 10.0 uM
# [22] = target: 5-hydroxytryptamine receptor 7 (Homo sapiens) (UniProt P34969); conditions: Compound concentration 10.0 uM
# [23] = target: Histamine H1 receptor (Homo sapiens) (UniProt P35367); conditions: Compound concentration 10.0 uM
# [24] = target: Alpha-1A adrenergic receptor (Homo sapiens) (UniProt P35348); conditions: Compound concentration 10.0 uM
# [25] = target: Muscarinic acetylcholine receptor M4 (Homo sapiens) (UniProt P08173); conditions: Compound concentration 10.0 uM
compound,measurement,setting,value
O=c1nc(-c2ccccn2)sc2ccccc12 [BTZO-1],Kd,[1],> 10000 nM (not active)
same,Ki,[2],934 nM
same,MEC1.5,[3],16 nM
same,Kd,[4],68.6 nM (active)
same,Kd,[5],157 nM (active)
same,residual activity,[6],89%
same,residual activity,[7],74%
same,residual activity,[8],100%
same,residual activity,[9],100%
same,residual activity,[10],82%
same,residual activity,[11],95%
same,residual activity,[12],95%
same,inhibition,[13],-1.33%
same,inhibition,[14],6.23%
same,inhibition,[15],-5.27%
same,inhibition,Rattus norvegicus,9.91%
same,inhibition,[16],12.5%
same,inhibition,[17],14%
O=C1NC(c2ccccn2)Sc2ccccc21 (centres undefined) [BTZO-4],Kd,[18],> 10000 nM (not active)
same,Kd,[19],> 10000 nM (not active)
same,residual activity,[6],72%
same,residual activity,[7],68%
same,residual activity,[8],95%
same,residual activity,[9],94%
same,residual activity,[10],88%
same,residual activity,[11],96%
same,residual activity,[12],88%
same,inhibition,[20],-4.84%
same,inhibition,[21],1.93%
same,inhibition,[22],-5.1%
same,inhibition,[23],49.9%
same,inhibition,[24],-9.97%
same,inhibition,[25],-4.7%
same,inhibition,Rattus norvegicus,22.6%
